Results from patent US20100240656A1, “COMPOUNDS AS HSP90 INHIBITORS” (ORYZON GENOMICS, S.A., priority 2007, published 2010).
Where two headings read alike, the source gives them in different places.

Tests used:
[1] = test system: Hsp90 client proteins (c-Raf-1, Cdk4, Her2) and co-chaperone Hsp70; conditions: literature (Banerji U. et al.); cited from earlier work
[2] = test system: MCF-7; test: Cell growth inhibition by AlamarBlue method, MCF-7; format: cell-based, human; conditions: MCF-7, 72 hours, read-out: Cell growth inhibition values (EC50) obtained with AlamarBlue method
Description: (§1) The human colon cancer cell line HCT-116 and the human breast cell lines MCF-7 and SKBr3 were from the American Type Culture Collection (ATCC; CCL-247, HTB-22 and HTB-30, respectively).
(§2) The HCT-116 and SKBr3 cell lines were maintained in DMEM GlutaMAX (Invitrogen) supplemented with 10% fetal calf serum and the MCF-7 cell line was maintained in RPMI1640 GlutaMAX (Invitrogen) containing 1 mM sodium pyruvate and 10% fetal calf serum. Cells were grown in a humidified incubator at 37° C. in 5% CO2
(§3) Cells were plated in 96-well plates (Costar, 3596) at a density of 6000 cells/well in 50 μL medium 24 h before addition of the compounds. Compounds were then added in 8 concentrations, each in triplicate (dilution series of 1 to 3). To do so, a compound-dilution plate at 200× the screening concentrations was prepared in DMSO 100% (Sigma, 154938). Then, 1.7 μL of the 200× diluted compounds were transferred to a new plate and 170 μL of media were added and mixed with the pipette (plate at 2×). Columns 11 and 12 of this plate (controls) were filled with 1% DMSO in cell media (i.e. 1.7 μL DMSO and 170 μL cell media). Finally, 50 μL of this intermediate plate at 2× were transferred to the plate containing the seeded cells and slowly shaken manually. Cells were grown as described above. AlamarBlue viability assay (Biosource, Invitrogen, DAL1100) was performed 72 hours later following manufacturer's protocol. In brief, AlamarBlue diluted in media was added to cells to have a 5% solution (a 2× solution was prepared in media and 100 μL of this solution were transferred to each well, i.e. final volume of 200 μL). Cells were incubated at 37° C., 3 hours and at room temperature for an additional 30 min. Cells with no compound and, cells with no compound and lysed with triton X-100 (30 μL/well added 10 min before treatment with AlamarBlue) were used as controls (6 replicates of each). Fluorescence was monitored at 530 nm excitation and 590 nm emission wavelengths. Results were quantified using ELx800 Universal Microplate Reader (Bio-Tek Instruments, Inc.). EC50 were calculated as the dose of compound required to inhibit cell growth by 50%.

[3] = test system: HCT-116; test: Cell growth inhibition by AlamarBlue method, HCT-116; format: cell-based; conditions: Homo sapiens; HCT-116, 72 hours; read-out: Cell growth inhibition values (EC50) obtained with AlamarBlue method
Description: as §1, §2, §3

[4] = target: T1, Hsp90α (Homo sapiens, UniProt P07900); test: Human Hsp90α fluorescence polarization competition assay with Example 37 tracer; conditions: displacement of 50 nM example 37 tracer, 125 nM Hsp90α, 1 h 30 min, 20° C.; read-out: Relative binding affinity values (IC50) obtained from FP measurements
T1 construct: purchased Stressgen Bioreagents SPP-776
Source text: The aim of this study was to determine the binding ability of compounds of the invention to the N-terminal ATP binding site of Hsp90. For that purpose competition assays with fluorescently labeled Hsp90 binders were used (compounds of examples 37 and 41).
Compounds of examples 37 and 41 are structurally based on 8-(6-Iodo-benzo[1,3]dioxol-5-ylsulfanyl)-9-(3-isopropylamino-propyl)-9H-purin-6-ylamine, a known binder of the N-terminal ATP binding site of Hsp90 which has the ability of inhibiting the Hsp90 function (cf. Chiosis G. et al. “Identification of Potent Water Soluble Purine-Scaffold Inhibitors of the Heat Shock Protein 90”, J. Med. Chem., 2006, vol. 49, no. 1, p. 381). Compounds 37 and 41 keep the essential structural features of the known binder (which means that said compounds are able to bind to the ATP binding site) and incorporate a fluorescent probe which allows the detection of the binding by fluorescence polarization.
When the binders of examples 37 and 41 are used in the competition assay, in a first step said binders are allowed to interact with the N-terminal ATP binding site of Hsp90. Then the compounds of the invention are added and it is determined if they are able to bind to the N-terminal ATP binding site (which will imply that the binders of examples 37 and 41 have been replaced from the N-terminal ATP binding site). If after performing the assay, the binding between the tested compound of the invention and the Hsp90 is observed, this will be indicative that the compound of the invention has been bound to the ATP binding site of Hsp90 and, therefore, can inhibit the Hsp90.
(§4) Once compounds of examples 37 and 41 were synthesized as reported above, they were dissolved at 238 μM and 1 mM in DMSO respectively (Sigma-Aldrich, cat. No. 154938). Hsp90α was purchased from Stressgen Bioreagents (cat. No. SPP-776; Victoria, Canada). The assay buffer contained 100 mM Tris·HCl, pH 7.4, 20 mM KCl, 6 mM MgCl2. Before each use 5 μg/mL bovine serum albumin (BSA, Pierce, Rockford (Ill.), cat No. 23209), 0.25 mM TCEP (Sigma, cat No. 64706) and 0.01% NP40 (Nonidet P40 Substitute, Fluka, cat No. 74385) were freshly added (cf. Howes et al., “A fluorescence polarization assay for inhibitors of Hsp90”, Analytical Biochemistry, 2006, vol. 350, p. 202-213; Kim et al., “Development of a fluorescence polarization assay for the molecular chaperone Hsp90”, J. Biomol. Screen., 2004, vol. 9 (5)).
Fluorescence polarization measurements were performed on an Infinite F200 (Tecan, Austria). Measurements were taken in black 96-well microplates (Corning Costar No. 3650) in which both the excitation and the emission occurred from the top of the wells. In the Infinite F200, a xenon arc lamp provides excitation light that passes through a 485 nm (20-nm bandwidth) excitation filter and then a polarizer filter. A beam splitter filter directs the polarized excitation light into the well, and emitted fluorescence transmits back through the same beam-splitter filter, through a polarizer filter, and then through a 535 nm (25-nm bandwidth) emission filter for detection (Kim et al., supra). The read time per well was 20 μs, and the number of reads per well was 25.
Compounds were assayed over a three-fold dilution series in a 96-well plate format to determine IC50 values. The serial dilution was performed in a separate 96-well plate (Thermowell 96 well PCR plate, Non-Treated Polypropylene, Corning Costar No. 6551) at 50 times final assay concentration in DMSO. (Howes et al, supra). 2 μl of compound was transferred to a black 96-well plate (Corning Costar No. 3650) and 98 μL of reaction solution (100 mM Tris·HCl, pH 7.4, 20 mM KCl, 6 mM MgCl2, 5 μg/mL bovine serum albumin (BSA), 0.25 mM TCEP, 0.01% NP40, 50 nM the compound of example 37, 125 nM Hsp90α) was added per well. The plate was allowed to equilibrate for 1 h 30 min on a slow moving shaker at 20° C. in the dark. […]

[5] = target: T1, Hsp90α; test: Fluorescence polarization binding isotherms of tracers with Hsp90α; conditions: fitted to a 1:1 binding model; read-out: dissociation constant (KD) tracer / Hsp90α
Description: as §4
Fluorescence polarization measurements were performed on an Infinite F200 (Tecan, Austria). […] A beam splitter filter directs the polarized excitation light into the well, and emitted fluorescence transmits back through the same beam-splitter filter, through a polarizer filter, and then through a 535 nm (25-nm bandwidth) emission filter for detection (Kim et al., supra). The read time per well was 20 μs, and the number of reads per well was 25. […]

[6] = test system: SKBr3; test: Cell growth inhibition by AlamarBlue method, SKBr3; format: cell-based; conditions: Homo sapiens, SK-BR-3; SKBr3, 72 hours; read-out: Cell growth inhibition values (EC50) obtained with AlamarBlue method
Description: as §1, §2, §3

Compound	EC50 [3]	IC50 [4]	EC50 [6]	further results
C=CCNC1=C2C[C@@H](C)C[C@H](OC)[C@H](O)[C@@H](C)/C=C(\C)[C@H](OC(N)=O)[C@@H](OC)/C=C\C=C(/C)C(=O)NC(=CC1=O)C2=O [Example 17AAG, 17-Allylamino, 17-Demethoxygeldanamycin]				effect of Hsp90 inhibitor on client proteins and Hsp70 as described in the literature [1]: promotes degradation of its client proteins and overexpression of the co-chaperone Hsp70
CC(C)NCCCn1c(Sc2cc3c(cc2I)OCO3)nc(C(N)=O)c1N [Example 33, 5-amino-2-(6-iodo-benzo[1,3]dioxol-5-ylsulfanyl)-1-(3-isopropylamino-propyl)-1H-imidazole-4-carboxamide]	3 µM	0.5 µM		EC50 ([2]; Homo sapiens, MCF7): 3 µM
Cc1cc(C)n2c1C=C1C=CC(CCC(=O)NCCNC(=O)CCCCCn3c(Sc4cc5c(cc4I)OCO5)nc4c(N)ncnc43)=[N+]1[B-]2(F)F [Example 37, 6-[6-amino-8-(6-iodo-benzol[1,3]dioxol-5-ylsulfanyl)-purin-9-yl]-hexanoic acid 4,4-difluoro-5,7-dimethyl-4-bora-3a,4a-diaza-s-indacene-3-propionylethylenediamide]				Kd [5]: 0.06 µM
Nc1ncnc2c1nc(Sc1cc3c(cc1I)OCO3)n2CCCCNC(=O)CCCCCNc1ccc([N+](=O)[O-])c2nonc12 [Example 41, 6-(7-nitro-benzo[1,2,5]oxadiazol-4-ylamino)-hexanoic acid {-4-[6-amino-8-(6-iodo-benzol[1,3]dioxol-5-ylsulfanyl)-purin-9-yl]-butyl}-amide]				Kd [5]: 0.021 µM
CC(C)N(CCCn1c(Cc2cc3c(cc2I)OCO3)nc(C(N)=O)c1N)C(=O)OC(C)(C)C [Example 44, {3-[5-amino-4-carbamoyl-2-(6-iodo-benzol[1,3]dioxol-5-ylmethyl)-imidazol-1-yl]-propyl}-isopropyl-carbamic acid tert-butyl ester]		3.2 µM		EC50 [2]: 18.8 µM
CCCCn1c(Sc2nc3cccc(Cl)c3s2)nc(C(N)=O)c1N [Example 48, 5-amino-1-butyl-2-(7-chloro-benzothiazol-2-ylsulfanyl)-1H-imidazole-4-carboxamide]	33 µM	2.76 µM		EC50 ([2]; Homo sapiens, MCF7): 43 µM
C=Cc1cc2c(cc1Sc1nc(C(N)=O)c(N)n1C)OCO2 [Example 77, 5-amino-1-methyl-2-[(6-vinyl-1,3-benzodioxol-5-yl)thio]-1H-imidazole-4-carboxamide]	39.2 µM	4.5 µM	39.2 µM	
CCN(CC)CCCn1c(Sc2cc3c(cc2SC)OCO3)nc(C(N)=O)c1N [Example 98, 5-amino-2-{[6-(methylthio)-1,3-benzodioxol-5-yl]thio}-1-[3-(diethylamino)propyl]-1H-imidazole-4-carboxamide]	6 µM	2 µM	1.9 µM	
CSc1cc2c(cc1Sc1nc(C(N)=O)c(N)n1C)CCO2 [Example 99, 5-amino-2-{[6-(methylthio)-2,3-dihydro-1-benzofuran-5-yl]thio}-methyl-1H-imidazole-4-carboxamide]	85 µM	13 µM	55 µM	

More lines, main results first:

EC50 [3]	IC50 [4]	EC50 [6]	Compound	further results
1 µM	0.9 µM	4.6 µM	NC(=O)c1nc(Sc2cc3c(cc2I)OCO3)n(CCCN2CCOCC2)c1N [Example 87, 5-amino-2-[(6-iodo-1,3-benzodioxol-5-yl)thio]-1-(3-morpholin-4-ylpropyl)-1H-imidazole-4-carboxamide]	
	4.8 µM	18 µM	CCN(CC)CCCn1c(Sc2cc3c(cc2Br)OCO3)nc(C(N)=O)c1N [Example 89, 5-amino-2-[(6-bromo-1,3-benzodioxol-5-yl)thio]-1-[3-(diethylamino)propyl]-1H-imidazole-4-carboxamide]	
70 µM	5 µM	41 µM	Cn1c(Sc2cc3c(cc2Br)OCC3)nc(C(N)=O)c1N [Example 97, 5-amino-2-[(6-bromo-2,3-dihydro-1-benzofuran-5-yl)thio]-1-methyl-1H-imidazole-4-carboxamide]	
